According to DBAASP:
In brackets after ≈: the same amount, converted by molar mass. Blank lines part the entries; values can stand above or below the molecule they belong to.

How the values were obtained:
Test in all cases: ≥ marks a high value that may be exact or a test limit, other limits are often not marked, values filed in µg/mL are converted to µM
Staphylococcus aureus = system: Staphylococcus aureus
[1] = system: Staphylococcus aureus ATCC 12493
[2] = system: Enterococcus faecalis NCTC 12697
[3] = system: Klebsiella pneumoniae ATCC 43816
[4] = system: Pseudomonas aeruginosa ATCC 27853
[5] = system: Staphylococcus aureus NCTC 10788
[6] = system: Escherichia coli NCTC 10418
[7] = system: Candida albicans NCYC 1467
Vibrio cholerae = system: Vibrio cholerae
Escherichia coli UTI89 = system: Escherichia coli UTI89
Enterobacter cloacae = system: Enterobacter cloacae
Klebsiella pneumoniae = system: Klebsiella pneumoniae
[8] = system: Escherichia coli ATCC 25922
[9] = system: Pseudomonas aeruginosa PAO1
[10] = system: Klebsiella pneumoniae NDM-1
[11] = system: Klebsiella pneumoniae ATCC 700603
[12] = system: Escherichia coli ATCC 35218
Pseudomonas fluorescens = system: Pseudomonas fluorescens
Vibrio parahaemolyticus = system: Vibrio parahaemolyticus
Vibrio alginolyticus = system: Vibrio alginolyticus
Cryptococcus neoformans = system: Cryptococcus neoformans
Bacillus cereus = system: Bacillus cereus
Candida albicans = system: Candida albicans
Bacillus subtilis = system: Bacillus subtilis
[13] = system: Staphylococcus epidermidis
Escherichia coli = system: Escherichia coli
Shigella flexneri = system: Shigella flexneri
Aeromonas hydrophila = system: Aeromonas hydrophila
Pseudomonas aeruginosa = system: Pseudomonas aeruginosa
Escherichia coli L361 = system: Escherichia coli L361
Bacillus cereus ACM 446 = system: Bacillus cereus ACM 446
Escherichia coli O9 = system: Escherichia coli O9
[14] = system: Staphylococcus aureus NCTC 6571
[15] = system: Salmonella enterica subsp. enterica serovar Salford IMVS 1710
[16] = system: Listeria monocytogenes NCTC 7973
[17] = system: Staphylococcus aureus 215
[18] = system: Bacillus amyloliquefaciens ATCC 23842
[19] = system: Salmonella enterica ATCC H9812
Staphylococcus aureus MR = system: Staphylococcus aureus MR
[20] = system: Bacillus licheniformis ATCC 14580
[21] = system: Bacillus cereus ATCC 14579
[22] = system: Enterococcus faecium 5F-10
[23] = system: Enterococcus faecium 4W-9
[24] = system: Staphylococcus aureus ATCC 29213
[25] = system: Enterococcus faecalis 1F-1
Enterococcus faecalis A4 = system: Enterococcus faecalis A4
[26] = system: Proteus mirabilis ATCC 35659
[27] = system: Bacillus subtilis ATCC 6051

MIC (Staphylococcus aureus): 4 µM (≈ 11.8 µg/mL)
MIC [1]: 2 µM (≈ 5.88 µg/mL)
MIC [2]: ≥ 32 µM
MIC [3]: 8 µM (≈ 23.5 µg/mL)
MIC [4]: 4 µM (≈ 11.8 µg/mL)
MIC [5]: 2 µM (≈ 5.88 µg/mL)
MIC [6]: 4 µM (≈ 11.8 µg/mL)
MIC [7]: 2 µM (≈ 5.88 µg/mL)
Compound: CC[C@H](C)[C@H](NC(=O)[C@H](CO)NC(=O)[C@H](CCCCN)NC(=O)[C@H](Cc1c[nH]c2ccccc12)NC(=O)[C@H](CC(C)C)NC(=O)[C@H](C)N)C(=O)N[C@@H](CC(C)C)C(=O)N[C@@H](CCCCN)C(=O)N[C@@H](CC(N)=O)C(=O)N[C@H](C(=O)NCC(=O)N[C@@H](CCCCN)C(=O)N[C@@H](C)C(=O)N[C@@H](C)C(=O)NCC(=O)N[C@@H](CCCCN)C(=O)N[C@@H](C)C(=O)N[C@H](C(=O)N[C@@H](CC(C)C)C(=O)N[C@@H](CC(N)=O)C(=O)N[C@@H](C)C(=O)N[C@H](C(=O)N[C@H](C(=O)N[C@@H](CC(=O)O)C(=O)N[C@@H](CCSC)C(=O)N[C@H](C(=O)N[C@@H](CC(N)=O)C(=O)N[C@@H](CCC(N)=O)C(N)=O)C(C)C)[C@@H](C)O)C(C)C)C(C)C)C(C)C [ALWKSILKNVGKAAGKAVLNAVTDMVNQ]

MIC (Escherichia coli UTI89): 2 µM (≈ 5.19 µg/mL)
MIC (Enterobacter cloacae): 4 µM (≈ 10.4 µg/mL)
MIC (Klebsiella pneumoniae): 2 µM (≈ 5.19 µg/mL)
MIC [8]: 2 µM (≈ 5.19 µg/mL)
MIC [4]: 2 µM (≈ 5.19 µg/mL)
MIC [9]: 2 µM (≈ 5.19 µg/mL)
MIC [10]: 2.83 µM (≈ 7.34 µg/mL)
MIC [11]: 2 µM (≈ 5.19 µg/mL)
MIC [12]: 2 µM (≈ 5.19 µg/mL)
Compound: CC[C@H](C)[C@H](NC(=O)[C@@H](NC(=O)[C@@H]1CCCN1C(=O)[C@H](CO)NC(=O)[C@H](CC(C)C)NC(=O)[C@H](CCCCN)NC(=O)[C@H](CCCCN)NC(=O)[C@H](Cc1ccccc1)NC(=O)[C@H](CC(C)C)NC(=O)[C@H](CCCCN)NC(=O)[C@H](CCCCN)NC(=O)[C@H](CC(C)C)NC(=O)[C@H](CCCCN)NC(=O)[C@H](CCCCN)NC(=O)[C@H](CCCN=C(N)N)NC(=O)[C@@H](N)Cc1ccccc1)C(C)C)C(=O)N1CCC[C@H]1C(=O)N[C@@H](CC(C)C)C(=O)N[C@@H](CC(C)C)C(=O)N[C@@H](CCCCN)C(=O)N[C@@H](CC(C)C)C(=O)NCC(N)=O [FRKKLKKLFKKLSPVIPLLKLG]
MIC (Vibrio cholerae): 4 µM (≈ 10.4 µg/mL)

MIC (Pseudomonas fluorescens): ≥ 50 µM
MIC (Staphylococcus aureus): > 50 µM
MIC (Vibrio alginolyticus): ≥ 50 µM
MIC (Cryptococcus neoformans): 17.7 µM (≈ 58.5 µg/mL)
MIC (Bacillus cereus): ≥ 50 µM
MIC (Candida albicans): > 50 µM
MIC (Bacillus subtilis): ≥ 35.4 µM
MIC [13]: ≥ 50 µM
MIC (Escherichia coli): > 50 µM
MIC (Shigella flexneri): ≥ 50 µM
MIC (Aeromonas hydrophila): ≥ 50 µM
MIC (Pseudomonas aeruginosa): > 50 µM
Compound: CSCC[C@H](NC(=O)[C@H](CCCCN)NC(=O)[C@H](CCC(N)=O)NC(=O)[C@H](CCSC)NC(=O)[C@H](CC(N)=O)NC(=O)[C@H](CCCN=C(N)N)NC(=O)[C@H](CC(N)=O)NC(=O)[C@H](Cc1ccc(O)cc1)NC(=O)[C@H](CCCCN)NC(=O)[C@H](Cc1ccc(O)cc1)NC(=O)[C@H](CC(=O)O)NC(=O)[C@H](CCCCN)NC(=O)[C@H](Cc1c[nH]c2ccccc12)NC(=O)[C@H](C)NC(=O)[C@H](CCC(N)=O)NC(=O)[C@H](CCCN=C(N)N)NC(=O)[C@H](C)NC(=O)CNC(=O)[C@@H](N)CCCCN)C(=O)N[C@@H](CC(N)=O)C(=O)N[C@@H](CCC(N)=O)C(=O)NCC(=O)N[C@@H](Cc1ccc(O)cc1)C(=O)NCC(=O)N[C@@H](CCC(N)=O)C(=O)N[C@@H](CCC(N)=O)C(=O)NCC(=O)NCC(=O)O [KGARQAWKDYKYNRNMQKMNQGYGQQGG]
MIC (Vibrio parahaemolyticus): ≥ 50 µM

MIC (Pseudomonas fluorescens): ≥ 100 µM
MIC (Escherichia coli L361): ≥ 50 µM
MIC (Bacillus cereus ACM 446): ≥ 100 µM
MIC (Escherichia coli O9): ≥ 60 µM
MIC [14]: ≥ 100 µM
MIC [15]: ≥ 100 µM
MIC [16]: ≥ 40 µM
Compound: CC[C@H](C)[C@H](NC(=O)[C@H](CO)NC(=O)[C@@H]1CCCN1C(=O)[C@H](C)NC(=O)CNC(=O)[C@H](CC(C)C)NC(=O)[C@H](CCCCN)NC(=O)[C@@H](N)CCCCN)C(=O)N[C@H](C(=O)N[C@@H](CS)C(=O)N[C@H](C(=O)N[C@@H](CCCN=C(N)N)C(=O)N[C@@H](CCCN=C(N)N)C(=O)N[C@@H](C)C(=O)N[C@@H](Cc1ccccc1)C(=O)N[C@@H](C)C(=O)O)C(C)C)[C@@H](C)O [KKLGAPSITCVRRAFA]

MIC [17]: ≥ 172 µM
MIC [18]: ≥ 172 µM
MIC [19]: ≥ 172 µM
MIC (Staphylococcus aureus MR): ≥ 172 µM
MIC [20]: ≥ 172 µM
MIC [8]: 85.8 µM (≈ 64 µg/mL)
MIC [21]: ≥ 172 µM
MIC [22]: ≥ 172 µM
MIC [23]: ≥ 172 µM
MIC [24]: > 172 µM
MIC [9]: > 172 µM
MIC [25]: ≥ 172 µM
MIC (Enterococcus faecalis A4): ≥ 172 µM
MIC [26]: ≥ 172 µM
MIC [27]: ≥ 172 µM
Compound: CC(C)C[C@H](NC(=O)[C@H](CC(C)C)NC(=O)[C@@H](N)CCC(=O)O)C(=O)N[C@@H](CO)C(=O)N[C@@H](C)C(=O)N[C@H](C(=O)N[C@@H](CC(=O)O)C(=O)O)C(C)C [ELLSAVD]
